# Results taken from ChEMBL document CHEMBL1158830, “Digitoxin inhibits the growth of cancer cell lines at concentrations commonly found in cardiac patients” (J Nat Prod, 2005).
# Active and inactive are the calls of the source. The rule behind the calls is not given here.
# Assays:
# K562 = experiment: Cytotoxicity against human K562 cells by XTT assay; assay type: functional, cell-based
# TK-10 [1] = experiment: Cytotoxicity against human TK10 cells after 48 hrs by SRB assay; assay type: functional, cell-based; settings: TK-10, 48 h
# Homo sapiens = organism: Homo sapiens; experiment: Plasma concentration in human; assay type: ADME, organism-based; settings: in vivo
# UACC-62 = experiment: Cytotoxicity against human UACC62 cells after 48 hrs by SRB assay; assay type: functional, cell-based; settings: UACC-62, 48 h
# MCF7 = experiment: Cytotoxicity against human MCF7 cells after 48 hrs by SRB assay; assay type: functional, cell-based; settings: MCF7, 48 h
# TK-10 [2] = experiment: Induction of apoptosis in human TK10 cells assessed as viable cells at 3 nM for 48 hrs measured after 3 days of drug removal by fluorescence microscopy assay; assay type: functional; settings: read-out: Activity
# [3] = molecular target: DNA topoisomerase 2-alpha (Homo sapiens) (UniProt P11388); experiment: Inhibition of topoisomerase 2alpha-mediated cleavage of double-stranded pRYG DNA assessed as linear DNA at 30 nM by agarose gel electrophoresis
# Chain of DNA topoisomerase 2-alpha (Homo sapiens) (P11388 whole entry): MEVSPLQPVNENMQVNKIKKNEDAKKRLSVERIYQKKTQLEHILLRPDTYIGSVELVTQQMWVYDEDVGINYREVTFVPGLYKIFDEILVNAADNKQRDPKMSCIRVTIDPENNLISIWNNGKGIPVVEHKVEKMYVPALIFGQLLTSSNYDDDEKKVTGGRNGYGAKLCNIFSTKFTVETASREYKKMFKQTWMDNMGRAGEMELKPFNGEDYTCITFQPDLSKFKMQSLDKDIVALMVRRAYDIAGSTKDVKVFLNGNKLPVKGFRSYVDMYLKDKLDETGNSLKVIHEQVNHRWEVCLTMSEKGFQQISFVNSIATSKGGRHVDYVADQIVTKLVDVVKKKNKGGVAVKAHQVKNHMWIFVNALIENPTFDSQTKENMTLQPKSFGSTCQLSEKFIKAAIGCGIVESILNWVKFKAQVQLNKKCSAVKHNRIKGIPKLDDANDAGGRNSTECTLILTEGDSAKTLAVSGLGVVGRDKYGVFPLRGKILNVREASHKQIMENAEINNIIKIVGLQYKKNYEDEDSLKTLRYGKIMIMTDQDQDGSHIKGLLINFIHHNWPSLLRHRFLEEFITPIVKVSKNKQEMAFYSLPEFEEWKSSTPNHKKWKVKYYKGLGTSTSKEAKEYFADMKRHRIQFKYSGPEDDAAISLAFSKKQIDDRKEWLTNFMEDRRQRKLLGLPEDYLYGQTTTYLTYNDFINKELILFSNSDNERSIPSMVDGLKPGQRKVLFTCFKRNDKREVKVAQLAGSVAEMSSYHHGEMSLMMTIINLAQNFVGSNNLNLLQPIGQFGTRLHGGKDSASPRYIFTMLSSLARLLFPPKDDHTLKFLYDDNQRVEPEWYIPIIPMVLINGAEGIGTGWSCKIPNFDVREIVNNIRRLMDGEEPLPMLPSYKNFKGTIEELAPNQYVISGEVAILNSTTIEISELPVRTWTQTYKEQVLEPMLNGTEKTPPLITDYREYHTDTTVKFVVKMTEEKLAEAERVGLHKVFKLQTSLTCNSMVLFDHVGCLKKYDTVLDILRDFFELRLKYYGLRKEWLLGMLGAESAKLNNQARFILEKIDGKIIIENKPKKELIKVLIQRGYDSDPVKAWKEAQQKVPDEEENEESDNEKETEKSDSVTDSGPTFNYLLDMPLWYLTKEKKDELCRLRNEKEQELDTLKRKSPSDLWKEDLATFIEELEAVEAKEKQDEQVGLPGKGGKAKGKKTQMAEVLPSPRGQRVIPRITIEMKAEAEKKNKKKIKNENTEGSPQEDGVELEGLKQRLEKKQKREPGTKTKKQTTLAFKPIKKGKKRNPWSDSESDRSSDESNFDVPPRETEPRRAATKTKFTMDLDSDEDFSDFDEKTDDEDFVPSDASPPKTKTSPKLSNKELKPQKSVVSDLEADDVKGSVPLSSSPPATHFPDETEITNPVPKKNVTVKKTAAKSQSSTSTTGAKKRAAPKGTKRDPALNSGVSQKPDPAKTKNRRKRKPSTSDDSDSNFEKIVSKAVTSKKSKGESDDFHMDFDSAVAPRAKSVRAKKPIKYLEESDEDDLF
# TK-10 [4] = experiment: Induction of apoptosis in human TK10 cells assessed as necrotic cells at 3 nM for 48 hrs measured after 3 days of drug removal by fluorescence microscopy assay; assay type: functional
# [5] = molecular target: DNA topoisomerase 2-beta (Homo sapiens) (UniProt Q02880); experiment: Inhibition of topoisomerase 2beta in human K562 cells assessed as cleavage of supercoiled pRYG DNA at 300 nM after 0.5 hrs by TARDIS assay relative to control; assay type: cell-based
# Chain of DNA topoisomerase 2-beta (Homo sapiens) (Q02880 whole entry): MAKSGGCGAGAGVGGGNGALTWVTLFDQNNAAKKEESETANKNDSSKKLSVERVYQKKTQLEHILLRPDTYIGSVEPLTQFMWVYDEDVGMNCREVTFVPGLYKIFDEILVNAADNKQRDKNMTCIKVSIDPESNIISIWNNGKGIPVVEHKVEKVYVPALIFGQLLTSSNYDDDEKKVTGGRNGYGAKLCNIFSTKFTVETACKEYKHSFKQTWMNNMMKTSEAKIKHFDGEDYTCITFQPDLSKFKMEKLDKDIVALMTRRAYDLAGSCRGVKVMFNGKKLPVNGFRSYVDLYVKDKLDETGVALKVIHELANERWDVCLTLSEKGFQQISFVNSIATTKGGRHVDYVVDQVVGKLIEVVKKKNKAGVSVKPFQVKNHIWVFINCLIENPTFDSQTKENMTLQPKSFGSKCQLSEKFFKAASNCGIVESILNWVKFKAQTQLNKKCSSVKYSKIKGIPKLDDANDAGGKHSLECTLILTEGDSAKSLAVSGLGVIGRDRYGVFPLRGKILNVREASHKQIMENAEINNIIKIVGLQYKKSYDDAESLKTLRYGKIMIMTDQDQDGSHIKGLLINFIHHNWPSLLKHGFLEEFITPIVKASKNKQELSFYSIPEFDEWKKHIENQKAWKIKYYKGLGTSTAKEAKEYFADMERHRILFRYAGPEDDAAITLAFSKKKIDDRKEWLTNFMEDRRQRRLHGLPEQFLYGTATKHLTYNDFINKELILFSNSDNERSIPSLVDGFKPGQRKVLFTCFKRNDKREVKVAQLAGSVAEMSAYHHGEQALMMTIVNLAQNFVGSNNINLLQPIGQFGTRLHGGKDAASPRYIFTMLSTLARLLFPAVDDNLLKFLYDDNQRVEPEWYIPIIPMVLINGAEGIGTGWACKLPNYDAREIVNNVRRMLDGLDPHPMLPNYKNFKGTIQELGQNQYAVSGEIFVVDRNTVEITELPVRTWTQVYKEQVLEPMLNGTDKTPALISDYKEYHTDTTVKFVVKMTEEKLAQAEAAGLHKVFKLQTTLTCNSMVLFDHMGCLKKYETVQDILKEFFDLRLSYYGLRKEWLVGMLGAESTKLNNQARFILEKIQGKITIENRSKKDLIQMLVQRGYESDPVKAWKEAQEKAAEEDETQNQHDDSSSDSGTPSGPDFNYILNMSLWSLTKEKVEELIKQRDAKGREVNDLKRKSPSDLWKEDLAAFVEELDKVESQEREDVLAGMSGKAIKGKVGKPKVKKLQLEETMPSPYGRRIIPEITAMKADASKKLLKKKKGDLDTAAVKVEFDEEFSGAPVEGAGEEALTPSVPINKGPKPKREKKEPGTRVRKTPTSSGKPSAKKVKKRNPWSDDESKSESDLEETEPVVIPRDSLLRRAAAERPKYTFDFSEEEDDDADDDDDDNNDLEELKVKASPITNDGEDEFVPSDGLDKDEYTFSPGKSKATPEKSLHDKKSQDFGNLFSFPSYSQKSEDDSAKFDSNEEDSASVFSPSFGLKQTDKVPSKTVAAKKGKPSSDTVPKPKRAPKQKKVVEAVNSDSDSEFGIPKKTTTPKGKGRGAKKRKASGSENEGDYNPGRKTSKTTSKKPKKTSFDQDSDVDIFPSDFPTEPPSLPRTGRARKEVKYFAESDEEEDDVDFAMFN
# [6] = molecular target: DNA topoisomerase 2-beta (Homo sapiens) (UniProt Q02880); experiment: Inhibition of topoisomerase 2beta in human K562 cells assessed as cleavage of supercoiled pRYG DNA at 300 nM by TARDIS assay; assay type: cell-based; settings: TDE = time-dependent effect
# [7] = molecular target: DNA topoisomerase 2-alpha (Homo sapiens) (UniProt P11388); experiment: Inhibition of topoisomerase 2alpha-mediated cleavage of double-stranded pRYG DNA assessed as linear DNA at 100 uM by agarose gel electrophoresis
# [8] = molecular target: DNA topoisomerase 2-alpha (Homo sapiens) (UniProt P11388); experiment: Inhibition of topoisomerase 2alpha-mediated cleavage of double-stranded pRYG DNA assessed as linear DNA at 100 nM by agarose gel electrophoresis
# [9] = molecular target: DNA topoisomerase 2-beta (Homo sapiens) (UniProt Q02880); experiment: Inhibition of topoisomerase 2beta in human K562 cells assessed as cleavage of supercoiled pRYG DNA at 300 nM after 24 hrs by TARDIS assay; assay type: cell-based
# TK-10 [10] = experiment: Induction of apoptosis in human TK10 cells assessed as apoptotic cells at 3 nM for 48 hrs measured after 3 days of drug removal by fluorescence microscopy assay; assay type: functional
Structure (SMILES),IC50 (TK-10 [1]),IC50 (UACC-62),IC50 (MCF7),other results
C[C@H]1O[C@@H](O[C@H]2[C@@H](O)C[C@H](O[C@H]3[C@@H](O)C[C@H](O[C@H]4CC[C@@]5(C)[C@H](CC[C@@H]6[C@@H]5C[C@@H](O)[C@]5(C)[C@@H](C7=CC(=O)OC7)CC[C@]65O)C4)O[C@@H]3C)O[C@@H]2C)C[C@H](O)[C@@H]1O [DIGOXIN],14.6 nM,29.5 nM,24.1 nM,IC50 (K562): 28.2 nM; concentration (Homo sapiens): 0.6 nM
COc1cc([C@@H]2c3cc4c(cc3[C@@H](O[C@@H]3O[C@@H]5CO[C@@H](C)O[C@H]5[C@H](O)[C@H]3O)[C@H]3COC(=O)[C@H]23)OCO4)cc(OC)c1O [ETOPOSIDE],9950 nM,1130 nM,878 nM,–
C[C@]12CC[C@H](O)C[C@H]1CC[C@@H]1[C@@H]2CC[C@]2(C)[C@@H](C3=CC(=O)OC3)[C@@H](O)C[C@]12O [GITOXIGENIN],416 nM,2840 nM,1810 nM,–
C[C@H]1O[C@@H](O[C@H]2[C@@H](O)C[C@H](O[C@H]3[C@@H](O)C[C@H](O[C@H]4CC[C@@]5(C)[C@H](CC[C@@H]6[C@@H]5CC[C@]5(C)[C@@H](C7=CC(=O)OC7)CC[C@]65O)C4)O[C@@H]3C)O[C@@H]2C)C[C@H](O)[C@@H]1O [DIGITOXIN],3.2 nM,33.5 nM,10.2 nM,viability at 0.003 µM (TK-10 [2]): 52.1%; Activity [3]: inactive; Activity (TK-10 [4]): 6.6%; Activity [5]: Active; Activity [6]: tde; IC50 (K562): 6.4 nM; Activity [7]: Active; concentration (Homo sapiens): 19.6 nM; Activity [8]: inactive; Activity [9]: Active; Activity (TK-10 [10]): 41.3%
C[C@]12CC[C@H](O)C[C@H]1CC[C@@H]1[C@@H]2CC[C@]2(C)[C@@H](C3=CC(=O)OC3)CC[C@]12O [DIGITOXIGENIN],76.5 nM,349 nM,194 nM,–
C[C@]12CC[C@H](O)C[C@H]1CC[C@@H]1[C@@H]2C[C@@H](O)[C@]2(C)[C@@H](C3=CC(=O)OC3)CC[C@]12O [DIGOXIGENIN],318 nM,416 nM,507 nM,–
C[C@H]1O[C@@H](O[C@H]2[C@@H](O)C[C@H](O[C@H]3[C@@H](O)C[C@H](O[C@H]4CC[C@@]5(C)[C@H](CC[C@@H]6[C@@H]5CC[C@]5(C)[C@@H](C7=CC(=O)OC7)[C@@H](O)C[C@]65O)C4)O[C@@H]3C)O[C@@H]2C)C[C@H](O)[C@@H]1O [GITOXIN],131 nM,369 nM,252 nM,–
